Experimental data as given in the NIST ThermoML archive (doi:10.1016/j.fluid.2016.02.006).
± gives the expanded uncertainty stated by the source.

Columns and labels:
[1] = Liquid, Vibrating tube method
[2] = xn = mol fraction of the nth substance listed; conditions: 101 kPa, Liquid, Vibrating tube method

c1ccccc1 [benzene]
mass density ([1]; 298.15 K, 101.33 kPa): 873.71 ± 2 kg/m3
mass density ([1]; 308.15 K, 101 kPa): 862.98 ± 2 kg/m3
mass density ([1]; 318.15 K, 101 kPa): 852.16 ± 2 kg/m3

c1ccccc1 [benzene] + CCCCCCCC
mass density ([2]; 308.15 K, x2 = 0): 862.98 ± 2 kg/m3
mass density ([2]; 318.15 K, x2 = 0): 852.16 ± 2 kg/m3

CCCC[N+](C)(C)C.O=S(=O)([N-]S(=O)(=O)C(F)(F)F)C(F)(F)F [butyltrimethylammonium bis(trifluoromethylsulfonyl)imide]
mass density ([1]; 298.15 K, 101.33 kPa): 1392.99 ± 6 kg/m3

CCCCCCCCCC [decane]
mass density ([1]; 298.15 K, 101.33 kPa): 726.15 ± 2 kg/m3

CCCCCCCCCCCC [dodecane]
mass density ([1]; 298.15 K, 101.33 kPa): 745.28 ± 2 kg/m3

CCCCCCCC [octane]
mass density ([1]; 298.15 K, 101.33 kPa): 698.86 ± 2 kg/m3
mass density ([1]; 308.15 K, 101 kPa): 690.72 ± 2 kg/m3
mass density ([1]; 318.15 K, 101 kPa): 682.5 ± 2 kg/m3

CCCCCCCC [octane] + c1ccccc1
mass density ([2]; 308.15 K, x1 = 0.0959): 832.4 ± 4.5 kg/m3
mass density ([2]; 308.15 K, x1 = 0.1937): 806.43 ± 3.9 kg/m3
mass density ([2]; 308.15 K, x1 = 0.3048): 781.74 ± 3.5 kg/m3
mass density ([2]; 308.15 K, x1 = 0.41): 762.04 ± 3.2 kg/m3
mass density ([2]; 308.15 K, x1 = 0.5097): 745.81 ± 2.9 kg/m3
mass density ([2]; 308.15 K, x1 = 0.6058): 732.34 ± 2.7 kg/m3
mass density ([2]; 308.15 K, x1 = 0.711): 719.36 ± 2.6 kg/m3
mass density ([2]; 308.15 K, x1 = 0.8101): 708.42 ± 2.5 kg/m3
mass density ([2]; 308.15 K, x1 = 0.9076): 698.91 ± 2.4 kg/m3
mass density ([2]; 308.15 K, x1 = 1): 690.72 ± 2 kg/m3
mass density ([2]; 318.15 K, x1 = 0.0988): 821.33 ± 4.4 kg/m3
mass density ([2]; 318.15 K, x1 = 0.1982): 796.48 ± 3.9 kg/m3
mass density ([2]; 318.15 K, x1 = 0.3072): 771.56 ± 3.5 kg/m3
mass density ([2]; 318.15 K, x1 = 0.407): 753.05 ± 3.1 kg/m3
mass density ([2]; 318.15 K, x1 = 0.5096): 736.77 ± 2.9 kg/m3
mass density ([2]; 318.15 K, x1 = 0.598): 724.35 ± 2.7 kg/m3
mass density ([2]; 318.15 K, x1 = 0.7048): 711.47 ± 2.6 kg/m3
mass density ([2]; 318.15 K, x1 = 0.8039): 700.49 ± 2.5 kg/m3
mass density ([2]; 318.15 K, x1 = 0.9005): 691.19 ± 2.4 kg/m3
mass density ([2]; 318.15 K, x1 = 1): 682.5 ± 2 kg/m3

CCCC[N+](C)(CCCC)CCCC.O=S(=O)([N-]S(=O)(=O)C(F)(F)F)C(F)(F)F [tributylmethylammonium bis((trifluoromethyl)sulfonyl)imide]
mass density ([1]; 298.15 K, 101.33 kPa): 1261.65 ± 6 kg/m3
